From US8524455B2, “Methods and compositions related to TR4 ligand” (University of Rochester, priority 2009, dated 2013)

Tests used:
PPARγ/RXR = molecular target: T1, PPARγ/RXR (Homo sapiens, UniProt P37231); experiment: CD36-luc luciferase reporter assay, PPARγ/RXR co-transfected into CV-1 cells; type: cell-based; details: 24 h
T1 construct: expressed in transfected cells; host or cells: CV-1
T1 sequence (P37231 29-505 limits assumed): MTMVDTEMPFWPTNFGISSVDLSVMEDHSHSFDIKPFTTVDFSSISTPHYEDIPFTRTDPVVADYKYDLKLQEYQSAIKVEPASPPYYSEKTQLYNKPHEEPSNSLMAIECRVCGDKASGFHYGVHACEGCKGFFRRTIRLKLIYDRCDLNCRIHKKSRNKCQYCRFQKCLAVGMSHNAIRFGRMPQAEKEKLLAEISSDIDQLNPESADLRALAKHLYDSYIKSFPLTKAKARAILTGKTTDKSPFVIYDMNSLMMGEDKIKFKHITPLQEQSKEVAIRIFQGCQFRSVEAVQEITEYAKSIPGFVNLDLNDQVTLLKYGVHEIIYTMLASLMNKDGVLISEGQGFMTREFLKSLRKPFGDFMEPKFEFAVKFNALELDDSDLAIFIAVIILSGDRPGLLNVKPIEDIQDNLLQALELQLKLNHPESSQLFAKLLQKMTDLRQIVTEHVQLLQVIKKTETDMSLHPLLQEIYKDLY
T1 sequence (P19793 1-462 partner): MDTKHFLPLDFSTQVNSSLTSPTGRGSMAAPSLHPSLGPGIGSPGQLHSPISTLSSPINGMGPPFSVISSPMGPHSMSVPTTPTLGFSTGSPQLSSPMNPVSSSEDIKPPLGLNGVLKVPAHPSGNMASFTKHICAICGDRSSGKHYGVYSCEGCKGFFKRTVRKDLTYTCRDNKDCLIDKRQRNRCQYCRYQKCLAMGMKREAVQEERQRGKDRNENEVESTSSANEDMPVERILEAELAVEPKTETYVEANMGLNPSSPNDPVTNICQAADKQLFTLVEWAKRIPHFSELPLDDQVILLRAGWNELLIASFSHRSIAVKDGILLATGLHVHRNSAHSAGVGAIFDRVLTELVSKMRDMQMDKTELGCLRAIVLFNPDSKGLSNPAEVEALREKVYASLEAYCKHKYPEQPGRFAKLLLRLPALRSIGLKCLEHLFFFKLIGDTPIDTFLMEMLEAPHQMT

TR4 [1] = molecular target: T2, TR4 (Homo sapiens, UniProt P49116); experiment: CD36-luc luciferase reporter assay, TR4 co-transfected into CV-1 cells; type: cell-based; parameters: pCMX-TR4 plasmids consist of the full length human TR4 gene subcloned into pCMX vector; expressed in transfected cells; host or cells: CV-1; details: 24 h
T2 sequence (P49116 1-615 isoform P49116-2): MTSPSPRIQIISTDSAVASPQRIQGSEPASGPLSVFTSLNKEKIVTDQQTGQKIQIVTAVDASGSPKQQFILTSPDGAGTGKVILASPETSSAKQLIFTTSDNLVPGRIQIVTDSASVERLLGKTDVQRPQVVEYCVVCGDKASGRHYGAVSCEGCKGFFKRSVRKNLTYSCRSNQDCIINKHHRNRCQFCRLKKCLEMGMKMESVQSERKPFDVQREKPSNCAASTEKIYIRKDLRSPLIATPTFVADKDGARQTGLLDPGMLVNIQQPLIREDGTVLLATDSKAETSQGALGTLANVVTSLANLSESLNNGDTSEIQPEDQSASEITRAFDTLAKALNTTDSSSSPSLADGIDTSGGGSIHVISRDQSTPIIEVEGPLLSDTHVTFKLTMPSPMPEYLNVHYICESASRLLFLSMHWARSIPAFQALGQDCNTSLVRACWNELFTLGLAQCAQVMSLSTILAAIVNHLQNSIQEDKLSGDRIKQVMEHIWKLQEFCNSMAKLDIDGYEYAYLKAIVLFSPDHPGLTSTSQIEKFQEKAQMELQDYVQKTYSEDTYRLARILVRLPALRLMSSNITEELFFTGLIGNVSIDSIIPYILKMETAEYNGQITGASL
Description: After 24 h, cells were harvested for Luciferase activity. The relative luciferase activity was calculated while setting pCMX-TR4 in vehicle control as 1. (FIG. 6B) Protease protective peptide mapping were analyzed in liganded-PPARγ and TR4. […] The reaction was stopped by adding 2×SDS-sample buffer. The protease digestion pattern was resolved by gel electrophoresis in 12.5% (for PPARγ), and 16% (for TR4) SDS-PAGE. […] After 24 h, cells were harvested for Luciferase activity. The relative luciferase activity was calculated while setting pCMX-TR4 in vehicle control as 1.
Mouse macrophage RAW 264.7 cells, obtained from ATCC, were cultured in DMEM medium supplemented with 8% fetal bovine serum and 100 µg/ml penicillin-streptomycin and maintained on the petri-dishes. […] After 24 h, cells were harvested for luciferase assays.

TR4 [2] = molecular target: T2, TR4; experiment: Limited proteolysis (protease protective peptide mapping) of [35S]-TR4; type: binding; parameters: pCMX-TR4 plasmids consist of the full length human TR4 gene subcloned into pCMX vector; expressed in transfected cells; host or cells: H1299; details: incubated 15 min, trypsin 0.25 and 2.5 g/ml 10 min; compared to DMSO control
Description: (FIG. 6A) PUFAs metabolites induced PPAR- and TR4-mediated CD36 activity. […] After 24 h, cells were harvested for Luciferase activity. The relative luciferase activity was calculated while setting pCMX-TR4 in vehicle control as 1. (FIG. 6B) Protease protective peptide mapping were analyzed in liganded-PPARγ and TR4. […] The reaction was stopped by adding 2×SDS-sample buffer. The protease digestion pattern was resolved by gel electrophoresis in 12.5% (for PPARγ), and 16% (for TR4) SDS-PAGE. […] After 24 h, cells were harvested for Luciferase activity. The relative luciferase activity was calculated while setting pCMX-TR4 in vehicle control as 1.

[3] = 1 and 20 µM in DMSO, compared with AA and EPA
[4] = 1, 10, 50, 100 and 250 µM in BSA

Structure (SMILES)	PPAR/RXR-mediated CD36 expression (CD36-luc luciferase activity) (PPARγ/RXR; [3])	TR4-mediated CD36 expression (CD36-luc luciferase activity) (TR4 [1]; [3])	Protease digestion pattern of ligand-bound TR4 (TR4 [2])	PPAR/RXR-mediated CD36 expression (CD36-luc luciferase activity) (PPARγ/RXR; [4])	TR4-mediated CD36 expression (CD36-luc luciferase activity) (TR4 [1]; [4])
CCCCCC(O)/C=C/C=C\CCCCCCCC(=O)O (centres unmarked) [13-HODE]	much better induction	much better induction	several changed proteolysis resisting fragments		
CCCCC[C@H](O)/C=C/C=C\C/C=C\C/C=C\CCCC(=O)O [15-HETE]	much better induction	much better induction	several changed proteolysis resisting fragments		
CCCCC/C=C\C/C=C\C/C=C\C/C=C\CCCC(=O)O [AA, arachidonic acid]				mildly induced	mildly induced
